Measured values taken from patent US10342796B2, “Acrylanilide derivative, preparation method, and applications thereof in pharmacy” (Ancureall Pharmaceutical (Shanghai) Co., Ltd., priority 2015, dated 2019).
Like-named read-outs stand apart in the source and are kept apart here.

How the values were obtained:
Test in all cases: Growth inhibition GI50 in vitro (CCK8/MTT, 72 h)
[1] = test system: SK-BR-3 (Her2 amp); format: cell-based, human; settings: Homo sapiens
[2] = test system: AU565 (Her2 amp); format: cell-based, human; settings: Homo sapiens
[3] = test system: PC-9 (EGFR dE746-A750); format: cell-based, human; settings: Homo sapiens
[4] = test system: HCC827 (EGFR dE746-A750); format: cell-based, human; settings: Homo sapiens
[5] = test system: PC-9ER (EGFR delE746-A750/T790M); format: cell-based, human; settings: Homo sapiens, PC-9/ER; EGFR mutant cell line; range of GI50; read-out: GI50 PC9ER
[6] = test system: H1975 (EGFR L858R/T790M); format: cell-based, human; settings: Homo sapiens, NCI-H1975
[7] = test system: A549 (EGFR WT); format: cell-based, human; settings: Homo sapiens
[8] = test system: H460 (EGFR wt, Kras G61H); format: cell-based, human; settings: Homo sapiens, NCI-H460
[9] = test system: A431 (EGFR WT, amplification and high expression); format: cell-based, human; settings: Homo sapiens, A-431
[10] = test system: H1299 (EGFR wt, Nras Q61K); format: cell-based, human; settings: Homo sapiens, NCI-H1299
[11] = test system: N87 (HER2 Amp); format: cell-based, human; settings: Homo sapiens
[12] = test system: H292 (EGFR WT); format: cell-based; settings: Homo sapiens, NCI-H292
[13] = test system: Calu-3 (Her2 amp); format: cell-based; settings: Homo sapiens
[14] = SK-BR-3, HER2 positive cell line, range of GI50, read-out: GI50 SK-BR-3
[15] = SK-BR-3, EGFR wt, Her2 amp, read-out: GI50
[16] = AU565, HER2 positive cell line, range of GI50, read-out: GI50 AU-565
[17] = AU565, EGFR wt, Her2 amp, read-out: GI50
[18] = EGFR mutant cell line, range of GI50, read-out: GI50 PC-9
[19] = PC-9, EGFR dE746-A750, read-out: GI50
[20] = HCC827, EGFR mutant cell line, range of GI50, read-out: GI50 HCC827
[21] = HCC827, EGFR dE746-A750, read-out: GI50
[22] = EGFR mutant cell line, range of GI50, read-out: GI50 H1975
[23] = H1975, EGFR L858R/T790M, read-out: GI50
[24] = A549, EGFR wild type cell line, range of GI50, read-out: GI50 A549
[25] = A549, EGFR wt, Kras G12S, read-out: GI50
[26] = EGFR wild type cell line, range of GI50, read-out: GI50 H460
[27] = H460, EGFR wt, Kras G61H, read-out: GI50
[28] = EGFR wild type cell line, range of GI50, read-out: GI50 A431
[29] = EGFR wild type cell line, range of GI50, read-out: GI50 H1299
[30] = H1299, EGFR wt, Nras Q61K, read-out: GI50
[31] = HER2 positive cell line, range of GI50, read-out: GI50 N87
[32] = N87, EGFR wt, Her2 amp, read-out: GI50
[33] = Calu-3, EGFR wt, Her2 amp, read-out: GI50

Q: C=CC(=O)Nc1cc(Nc2nccc(Nc3cccc(Cl)c3)n2)c(OC)cc1N(C)CCN(C)C [Compound 2, N-(5-(4-(3-chloro-phenylamino)-pyrimidin-2-ylamino)-2-(2-(dimethylamino-ethyl)-methyl-amino)-4-methoxyl-phenyl)-acrylamide] was tested. Which GI50 [1, 14] did it give?
A: 10 to 100 nM

Q: And the GI50 [1, 15]?
A: 19.5 nM

Q: And the GI50 [2, 16]?
A: 10 to 100 nM

Q: What about the GI50 [2, 17] of the same compound?
A: 15.4 nM

Q: What about the GI50 [3, 18] of the same compound?
A: < 10 nM

Q: What about the GI50 [3, 19] of the same compound?
A: 5.4 nM

Q: What about the GI50 [4, 20] of the same compound?
A: < 10 nM

Q: What about the GI50 [4, 21] of the same compound?
A: 2.3 nM

Q: And the GI50 [5]?
A: < 10 nM

Q: And the GI50 [6, 22]?
A: 10 to 100 nM

Q: What about the GI50 [6, 23] of the same compound?
A: 14.6 nM

Q: What about the GI50 [7, 24] of the same compound?
A: > 1000 nM

Q: And the GI50 [7, 25]?
A: > 1000 nM

Q: What about the GI50 [8, 26] of the same compound?
A: > 1000 nM

Q: What about the GI50 [8, 27] of the same compound?
A: > 1000 nM

Q: What about the GI50 ([9]; A431, EGFR wt, read-out: GI50) of the same compound?
A: 156 nM

Q: And the GI50 [9, 28]?
A: 100 to 1000 nM

Q: What about the GI50 [10, 29] of the same compound?
A: > 1000 nM

Q: What about the GI50 [10, 30] of the same compound?
A: > 1000 nM

Q: And the GI50 [11, 31]?
A: < 10 nM

Q: What about the GI50 [11, 32] of the same compound?
A: 10 nM

Q: What about the GI50 ([12]; H292, EGFR wt, read-out: GI50) of the same compound?
A: > 1000 nM

Q: What about the GI50 [13, 33] of the same compound?
A: 31.2 nM

Q: What does the source list for C=CC(=O)Nc1cc(Nc2nccc(Nc3ccc(OCc4ccccn4)c(Cl)c3)n2)c(OC)cc1N(C)CCN(C)C [Compound 18, N-(5-(4-(3-chloro-4-(pyridin-2-methoxyl)phenylamino)pyrimidin-2-ylamino)-2-((2-(dimethylamino)ethyl)(methyl)amino)-4-methoxyl-phenyl)-acrylamide]?
A: GI50 [1, 14]: 10 to 100 nM; GI50 [1, 15]: 39.1 nM; GI50 [2, 16]: 10 to 100 nM; GI50 [2, 17]: 15.6 nM; GI50 [3, 18]: 10 to 100 nM; GI50 [3, 19]: 14.5 nM; GI50 [4, 20]: 10 to 100 nM; GI50 [4, 21]: 9.4 nM; GI50 [5]: < 10 nM; GI50 [6, 22]: 10 to 100 nM; GI50 [6, 23]: 14.6 nM; GI50 [7, 24]: > 1000 nM; GI50 [7, 25]: > 1000 nM; GI50 [8, 26]: > 1000 nM; GI50 [8, 27]: > 1000 nM; GI50 ([9]; A431, EGFR wt, read-out: GI50): 438 nM; GI50 [9, 28]: 100 to 1000 nM; GI50 [10, 29]: > 1000 nM; GI50 [10, 30]: > 1000 nM; GI50 [11, 31]: 10 to 100 nM; GI50 [11, 32]: 19.5 nM; GI50 ([12]; H292, EGFR wt, read-out: GI50): > 1000 nM; GI50 [13, 33]: 23.4 nM

Q: Which results are given for C=CC(=O)Nc1cc(Nc2ncc(Cl)c(Nc3ccc(OCc4ccccn4)c(Cl)c3)n2)c(OC)cc1N(C)CCN(C)C [Compound 19, N-(5-(5-chloro-4-(3-chloro-4-(pyridin-2-methoxyl)phenylamino)-pyrimidin-2-ylamino)-2-((2-(dimethylamino)ethyl)(methyl)amino)-4-methoxyl-phenyl)-acrylamide]?
A: GI50 [1, 14]: 10 to 100 nM; GI50 [1, 15]: 39.1 nM; GI50 [2, 16]: 10 to 100 nM; GI50 [2, 17]: 17.5 nM; GI50 [3, 18]: < 10 nM; GI50 [3, 19]: 7.3 nM; GI50 [4, 20]: < 10 nM; GI50 [4, 21]: 6.4 nM; GI50 [5]: < 10 nM; GI50 [6, 22]: < 10 nM; GI50 [6, 23]: 4.9 nM; GI50 [7, 24]: > 1000 nM; GI50 [7, 25]: 978 nM; GI50 [8, 26]: > 1000 nM; GI50 [8, 27]: > 1000 nM; GI50 ([9]; A431, EGFR wt, read-out: GI50): 625 nM; GI50 [9, 28]: 100 to 1000 nM; GI50 [10, 29]: > 1000 nM; GI50 [10, 30]: > 1000 nM; GI50 [11, 31]: 10 to 100 nM; GI50 [11, 32]: 19.5 nM; GI50 ([12]; H292, EGFR wt, read-out: GI50): > 1000 nM; GI50 [13, 33]: 19.5 nM

Q: How did the GI50 [1, 14] turn out when C=CC(=O)Nc1cc(Nc2nccc(-n3ccc4c(OC)cccc43)n2)c(OC)cc1N(C)CCN(C)C [Compound 99, N-(5-(4-(4-methoxyl-1H-indol-1-yl)-pyrimidin-2-ylamino)-2-(2-(dimethylamino-ethyl)-methyl-amino)-4-methoxyl-phenyl)-acrylamide] was run?
A: 10 to 100 nM

Q: What about the GI50 [2, 16] of the same compound?
A: 10 to 100 nM

Q: What about the GI50 [3, 18] of the same compound?
A: 10 to 100 nM

Q: And the GI50 ([3]; Table 15, 1000 nM to 0.03 nM serial dilution, read-out: GI50 PC-9 (EGFR dE746-A750))?
A: 14.1 nM

Q: What about the GI50 [4, 20] of the same compound?
A: 10 to 100 nM

Q: What about the GI50 [5] of the same compound?
A: < 10 nM

Q: And the GI50 [6, 22]?
A: < 10 nM

Q: And the GI50 ([6]; Table 15, 1000 nM to 0.03 nM serial dilution, read-out: GI50 H1975 (EGFR L858R/T790M))?
A: 9.25 nM

Q: What about the GI50 [7, 24] of the same compound?
A: > 1000 nM

Q: And the GI50 ([7]; A549, Table 15, 1000 nM to 0.03 nM serial dilution, read-out: GI50 A549 (EGFR WT))?
A: > 1000 nM

Q: What about the GI50 [8, 26] of the same compound?
A: > 1000 nM

Q: What about the GI50 [9, 28] of the same compound?
A: 100 to 1000 nM

Q: What about the GI50 [10, 29] of the same compound?
A: > 1000 nM

Q: What about the GI50 [11, 31] of the same compound?
A: < 10 nM

Q: And the GI50 ([11]; Table 16, 1000 nM to 0.03 nM serial dilution, read-out: GI50 N87 (HER2 amp))?
A: 1.35 nM

Q: And the GI50 ([12]; Table 15, 1000 nM to 0.03 nM serial dilution, read-out: GI50 H292 (EGFR WT))?
A: > 1000 nM

Q: And the GI50 ([13]; Calu-3, Table 16, 1000 nM to 0.03 nM serial dilution, read-out: GI50 Calu3 (HER2 amp))?
A: 3.26 nM
